The results in this text go back to patent publication US9856279B2 (AGIOS PHARMACEUTICALS, INC, priority 2011, dated 2018).

Broadly, the IC50 is the concentration that gives 50% inhibition.

One assay concerns the target IDH1 R132H (Homo sapiens, UniProt O75874, R132H). The assay can be described thus: Assay for IDH1 R132H inhibitors (NADPH/aKG, resazurin detection). In kind it is biochemical. The following applies: enzyme assay of Example 12; read-out: IDH1R132H IC50. The method in brief:
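Read-out is resorufin fluorescence (Ex544/Em590) 5 min after adding a 30 μM resazurin detection mix. Before that, mutant enzyme (0.2 μg/ml in its mix) ran 50 min at room temperature with compound, 8 uM NADPH and 2 mM aKG (mix levels) in Tris pH 7.5 with NaCl, MgCl2, BSA.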
In general terms: Resazurin is reduced to fluorescent resorufin, in cell work by metabolically active cells.

For the next assay, the system named is HT1080 cells. The assay can be described thus: Cellular assay for IDH1m inhibitors: inhibition of 2-HG production (LC-MS, 48 hours) in HT1080 cells. The following applies: Homo sapiens, HT-1080; inhibition of 2-HG production, HT1080 cells; read-out: HT1080 IC50. Type of assay: cell-based. The method in brief:
(§1)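 HT1080 or U87MG cells were seeded at 5000/well in DMEM with 10% FBS, incubated overnight, then treated with compounds (0.2% DMSO final) for 48 h. Medium 2-HG was quantified by LC-MS, and IC50 was taken as the concentration reducing 2-HG by 50% versus DMSO control.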

The subject of a further assay is U87MG cells. Nature of the assay: Cellular assay for IDH1m inhibitors: inhibition of 2-HG production (LC-MS, 48 hours) in U87MG cells. In kind it is cell-based. The note with it: Homo sapiens, U-87 MG, inhibition of 2-HG production, U87R132H cells; read-out: U87R132H IC50. The gist of the method:
as §1

IDH1 R132H, sequence (O75874 whole entry R132H): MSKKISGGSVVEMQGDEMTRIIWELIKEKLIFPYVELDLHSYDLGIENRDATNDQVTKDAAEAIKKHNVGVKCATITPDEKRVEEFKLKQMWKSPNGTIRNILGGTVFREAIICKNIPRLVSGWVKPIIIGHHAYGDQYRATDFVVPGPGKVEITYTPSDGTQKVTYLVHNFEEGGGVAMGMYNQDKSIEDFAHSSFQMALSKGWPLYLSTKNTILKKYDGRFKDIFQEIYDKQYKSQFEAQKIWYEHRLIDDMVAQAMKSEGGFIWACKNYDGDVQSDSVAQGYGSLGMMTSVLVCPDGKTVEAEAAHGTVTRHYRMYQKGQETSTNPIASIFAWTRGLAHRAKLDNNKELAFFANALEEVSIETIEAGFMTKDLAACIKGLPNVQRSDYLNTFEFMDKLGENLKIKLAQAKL

With `C=Cc1ccc2c(-c3cc(C#N)c(N4CCN(C(=O)CCO)[C@H](C)C4)nc3C3CC3)cccc2n1` [Compound 633, (R)-6-cyclopropyl-2-(4-(3-hydroxypropanoyl)-3-methylpiperazin-1-yl)-5-(2-vinylquinolin-5-yl)nicotinonitrile], the IC50 at IDH1 R132H, in the assay on HT1080 cells and with U87MG cells was less than 0.5 µM each time.
On to `C=Cc1ncc2c(-c3cc(C#N)c(N4CCN(C(=O)CCOC)[C@H](C(C)C)C4)nc3C3CC3)cccc2n1` [Compound 634, (R)-6-cyclopropyl-2-(3-isopropyl-4-(3-methoxypropanoyl)piperazin-1-yl)-5-(2-vinylquinazolin-5-yl)nicotinonitrile], for which the half-maximal inhibitory concentration (IC50) at IDH1 R132H, with HT1080 cells and with U87MG cells was less than 0.5 µM each time.
On to `C=Cc1ncc2c(-c3cc(C#N)c(N4CCN(C(=O)CCOC)[C@H](C5CC5)C4)nc3C3CC3)cccc2n1` [Compound 635, (R)-6-cyclopropyl-2-(3-cyclopropyl-4-(3-methoxypropanoyl)piperazin-1-yl)-5-(2-vinylquinazolin-5-yl)nicotinonitrile], for which the IC50 at IDH1 R132H, with HT1080 cells and in the assay with U87MG cells was less than 0.5 µM each time.
Regarding `C=Cc1ncc2c(-c3cc(C#N)c(N4CCN(C(=O)C5CC5)[C@H](C5CC5)C4)nc3C3CC3)cccc2n1` [Compound 636, (R)-2-(4-(cyclopropanecarbonyl)-3-cyclopropylpiperazin-1-yl)-6-cyclopropyl-5-(2-vinylquinazolin-5-yl)nicotinonitrile], the IC50 on IDH1 R132H, in the assay with HT1080 cells and in the assay on U87MG cells was less than 0.5 µM in each case.
On to `C=Cc1cc(-c2cc(C#N)c(N3CCN(C(=O)CCOC)[C@H](C4CC4)C3)nc2C2CC2)ncn1` [Compound 638, (R)-6-cyclopropyl-2-(3-cyclopropyl-4-(3-methoxypropanoyl)piperazin-1-yl)-5-(6-vinylpyrimidin-4-yl)nicotinonitrile], for which the IC50 on IDH1 R132H, with HT1080 cells and with U87MG cells was less than 0.5 µM throughout.
Turning to `C=Cc1cc(-c2cc(C#N)c(N3CCN(C(=O)CCOC)[C@H](C(C)C)C3)nc2C2CC2)ncn1` [Compound 639, (R)-6-cyclopropyl-2-(3-isopropyl-4-(3-methoxypropanoyl)piperazin-1-yl)-5-(6-vinylpyrimidin-4-yl)nicotinonitrile], the IC50 on IDH1 R132H, in the assay on HT1080 cells and with U87MG cells was less than 0.5 µM in each case.
Take `C=Cc1cc(Nc2cc(C#N)c(N3CCN(C(=O)CCOC)[C@H](C)C3)nc2C2CC2)ccn1` [Compound 642, (R)-6-cyclopropyl-2-(4-(3-methoxypropanoyl)-3-methylpiperazin-1-yl)-5-((2-vinylpyridin-4-yl)amino)nicotinonitrile]: the IC50 on IDH1 R132H, in the assay with HT1080 cells and in the assay with U87MG cells was less than 0.5 µM throughout.
As to `COCCC(=O)N1CCN(c2nc(C3CC3)c(Nc3ccnc(Cl)c3)cc2C#N)C[C@H]1C` [Compound 643, (R)-5-((2-chloropyridin-4-yl)amino)-6-cyclopropyl-2-(4-(3-methoxypropanoyl)-3-methylpiperazin-1-yl)nicotinonitrile], the IC50 at IDH1 R132H was less than 0.5 µM; in the assay on HT1080 cells it was less than 0.5 µM; in the assay on U87MG cells it was 0.5 to 1 µM.
For `C=Cc1cnc2c(-c3cc(C#N)c(N4CCN(C(=O)CCOC)[C@H](C5CC5)C4)nc3C3CC3)cccc2n1` [Compound 644, (R)-6-cyclopropyl-2-(3-cyclopropyl-4-(3-methoxypropanoyl)piperazin-1-yl)-5-(2-vinylquinoxalin-5-yl)nicotinonitrile], the IC50 on IDH1 R132H, with HT1080 cells and in the assay with U87MG cells was less than 0.5 µM in each case.
In the case of `C=Cc1cc(-c2cc(C#N)c(N3CCN(C(=O)CCOC)[C@H](C4CC4)C3)nc2C2CC2)c2cccnc2n1` [Compound 645, (R)-6-cyclopropyl-2-(3-cyclopropyl-4-(3-methoxypropanoyl)piperazin-1-yl)-5-(2-vinyl-1,8-naphthyridin-4-yl)nicotinonitrile], the IC50 on IDH1 R132H, in the assay with HT1080 cells and in the assay with U87MG cells was less than 0.5 µM each time.
Take `C=Cc1ccnc(Nc2cc(C#N)c(N3CCN(C(=O)CCOC)[C@H](C)C3)nc2C2CC2)c1` [Compound 647, (R)-6-cyclopropyl-2-(4-(3-methoxypropanoyl)-3-methylpiperazin-1-yl)-5-((4-vinylpyridin-2-yl)amino)nicotinonitrile]: the IC50 at IDH1 R132H, with HT1080 cells and in the assay with U87MG cells was less than 0.5 µM each time.
Regarding `C=Cc1cc(-c2cc(C#N)c(N3CCN(C(=O)C[C@H]4CCO4)[C@H](C)C3)nc2C2CC2)ccn1` [Compound 648, 2-cyclopropyl-6-((R)-3-methyl-4-(2-((R)-oxetan-2-yl)acetyl)piperazin-1-yl)-2′-vinyl-[3,4′-bipyridine]-5-carbonitrile], the IC50 at IDH1 R132H, in the assay with HT1080 cells and in the assay with U87MG cells was less than 0.5 µM throughout.
Take `C=Cc1cc(-c2cc(C#N)c(N3CCN(C(=O)CC4CCO4)[C@H](C)C3)nc2C2CC2)ccn1` (stereo partly drawn) [Compound 649, 2-cyclopropyl-6-((3R)-3-methyl-4-(2-(oxetan-2-yl)acetyl)piperazin-1-yl)-2′-vinyl-[3,4′-bipyridine]-5-carbonitrile]: the IC50 on IDH1 R132H, in the assay on HT1080 cells and in the assay with U87MG cells was less than 0.5 µM throughout.
For the compound `C=Cc1ncc2c(-c3cc(C#N)c(N4CCN(C(=O)CCO)[C@H](C)C4)nc3C3CC3)cccc2n1` [Compound 652, (R)-6-cyclopropyl-2-(4-(3-hydroxypropanoyl)-3-methylpiperazin-1-yl)-5-(2-vinylquinazolin-5-yl)nicotinonitrile], the IC50 at IDH1 R132H, in the assay on HT1080 cells and with U87MG cells was less than 0.5 µM each time.
As to `C=Cc1cc(-c2c(C3CC3)nc(N3CCN(C(=O)CCO)[C@H](C)C3)c(C#N)c2C)ccn1` [Compound 654, (R)-2-cyclopropyl-6-(4-(3-hydroxypropanoyl)-3-methylpiperazin-1-yl)-4-methyl-2′-vinyl-[3,4′-bipyridine]-5-carbonitrile], the IC50 on IDH1 R132H, with HT1080 cells and in the assay with U87MG cells was less than 0.5 µM throughout.
Take `C=Cc1cnc2c(-c3cc(C#N)c(N4CCN(C(=O)CCO)[C@H](C5CC5)C4)nc3C3CC3)cccc2n1` [Compound 657, (R)-6-cyclopropyl-2-(3-cyclopropyl-4-(3-hydroxypropanoyl)piperazin-1-yl)-5-(2-vinylquinoxalin-5-yl)nicotinonitrile]: the IC50 on IDH1 R132H, in the assay with HT1080 cells and in the assay with U87MG cells was less than 0.5 µM each time.
Consider `COCCC(=O)N1CCN(c2nc(C3CC3)c(Nc3ccnc(C#N)c3)cc2C#N)C[C@H]1C` [Compound 660, (R)-4-(5-cyano-2-cyclopropyl-6-(4-(3-methoxypropanoyl)-3-methylpiperazin-1-yl)pyridin-3-ylamino)picolinonitrile], for which the IC50 at IDH1 R132H, in the assay with HT1080 cells and in the assay on U87MG cells was less than 0.5 µM throughout.
Take `C=Cc1cc(-c2cc(C#N)c(N3CCN(C(=O)CCO)[C@H](C4CC4)C3)nc2C2CC2)ncn1` [Compound 663, (R)-6-cyclopropyl-2-(3-cyclopropyl-4-(3-hydroxypropanoyl)piperazin-1-yl)-5-(6-vinylpyrimidin-4-yl)nicotinonitrile]: the IC50 on IDH1 R132H, in the assay with HT1080 cells and with U87MG cells was less than 0.5 µM throughout.
Take `COCCC(=O)N1CCN(c2nc(C3CC3)c(Oc3cc(Cl)ncn3)cc2C#N)C[C@H]1C` [Compound 666, (R)-5-((6-chloropyrimidin-4-yl)oxy)-6-cyclopropyl-2-(4-(3-methoxypropanoyl)-3-methylpiperazin-1-yl)nicotinonitrile]: the IC50 at IDH1 R132H, with HT1080 cells and in the assay on U87MG cells was less than 0.5 µM throughout.
`C=Cc1cc(Oc2cc(C#N)c(N3CCN(C(=O)CCOC)[C@H](C)C3)nc2C2CC2)ccn1` [Compound 667]: the IC50 on IDH1 R132H, in the assay on HT1080 cells and in the assay with U87MG cells was less than 0.5 µM in each case.
`C=Cc1nc(-c2cc(C#N)c(N3CCN(C(=O)CCO)[C@H](C4CC4)C3)nc2C2CC2)c2ccccc2n1` [Compound 670, (R)-6-cyclopropyl-2-(3-cyclopropyl-4-(3-hydroxypropanoyl)piperazin-1-yl)-5-(2-vinylquinazolin-4-yl)nicotinonitrile]: the IC50 at IDH1 R132H, in the assay on HT1080 cells and with U87MG cells was less than 0.5 µM in each case.
`C=Cc1cc(-c2cc(C#N)c(N3CCN(C(=O)CCOC)[C@H](C4CC4)C3)nc2C2CC2)cnn1` [Compound 674, (R)-6-cyclopropyl-2-(3-cyclopropyl-4-(3-methoxypropanoyl)piperazin-1-yl)-5-(6-vinylpyridazin-4-yl)nicotinonitrile]: the IC50 at IDH1 R132H, in the assay with HT1080 cells and with U87MG cells was less than 0.5 µM each time.
As for `COCCC(=O)N1CCN(c2nc(C3CC3)c(-c3cnnc(OS(=O)(=O)C(F)(F)F)c3)cc2C#N)C[C@H]1C1CC1` [Compound 675, (R)-5-(5-cyano-2-cyclopropyl-6-(3-cyclopropyl-4-(3-methoxypropanoyl)piperazin-1-yl)pyridin-3-yl)pyridazin-3-yl trifluoromethanesulfonate], the half-maximal inhibitory concentration (IC50) on IDH1 R132H was less than 0.5 µM; with HT1080 cells, 1 to 10 µM; in the assay on U87MG cells, 0.5 to 1 µM.
